{
  "source": "patent US6475716B1",
  "about": "“Method for preserving mammalian organs” (Biobank Co., Ltd., priority 2001, dated 2002)",
  "origin": "cited, not measured here",
  "system": "cell membranes of the heart",
  "settings": "heart exposed to low temperature of 4° C. or ischemic injury",
  "data": [
    {"compound": "OC[C@H]1O[C@H](O[C@H]2O[C@H](CO)[C@@H](O)[C@H](O)[C@H]2O)[C@H](O)[C@@H](O)[C@@H]1O", "note": "[trehalose]", "values": [
      {"measurement": "protection of cell membranes of the heart", "result": "had the ability to protect cell membranes of the heart"}
    ]}
  ]
}
